The text below walks through data of PubChem BioAssay (NCI).

Structures are written as SMILES. Several values for one entry are separate records, joined by “and”; a condition that tells them apart may be missing. Equal values may be shown once.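 Results reflect a 48-hour exposure of cells in 96-well plates to compound at five concentrations. GI50 is the concentration that inhibits growth by half. TGI marks complete inhibition of growth.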

The first assay relates to NCI-H522 lung. The assay can be described thus: NCI-60 cell line screen, 48 h.
On to `CC(=O)OC1COC(n2c(=S)n(-c3ccccc3)c(=O)c3cc(Br)ccc32)C(OC(C)=O)C1OC(C)=O` (stereo not given), for which the TGI is more than 100 µM.

`CC1=C(C(=O)Nc2ccccc2C)C(/C=C/c2ccccc2)C(C(=O)Nc2ccccc2C)=C(C)N1` yielded a TGI of more than 100 µM.

`COc1cc2cnc3c4ccccc4ccc3c2cc1OC` gave a TGI of more than 100 µM.

For the compound `Cc1cn(C2OC(C)(CO)C(O)C2O)c(=O)[nH]c1=O` (stereo not given), the TGI is more than 100 µM.

Compound `O=C1C=C(O)c2[nH]c(=O)ccc2C1=O` yielded a TGI of more than 100 µM.

On to `O=c1ncccn1C1C=C(CO)C(O)C1O` (stereo not given), for which the TGI was more than 50 µM.

The compound `CCN(CC)CC(=O)N1CCc2c([nH]c3ccccc23)C1c1cccnc1` (stereo not given) registered a TGI of more than 100 µM.

Take `CC1(Cc2ccccc2)NC(=S)NC1=O` (stereo not given): the TGI was more than 100 µM.

The compound `COC1OC(C)C(OCc2ccccc2)C(OS(=O)(=O)c2ccc(C)cc2)C1OS(=O)(=O)c1ccc(C)cc1` (stereo not given) displayed a TGI of more than 100 µM.

The compound `O=C1C2=C(c3ccccc31)C(c1ccccc1Cl)N1C(=O)CCSC1=N2` (stereo not given) registered a TGI of more than 100 µM.

The test system of another assay is TK-10 renal. As to the kind of experiment: NCI-60 cell line screen, 48 h.
The compound `CC1(c2ccccc2)CC(c2ccccc2)=NO1` (stereo not given) showed a TGI of more than 100 µM.

`COc1cccc(/C=C2\CCC(C)(CN(C)C)C2=O)c1` (stereo not given) showed a TGI of more than 100 µM.

Take `Cl[Si]1(Cl)Oc2ccccc2O[Si](Cl)(Cl)Oc2ccccc2O1`: the TGI was more than 100 µM.

In the case of `C[n+]1c2ccccc2cc2c(CNC(CCCN=C(N)N)C(=O)O)cccc21` (stereo not given), the GI50 was 0.967 µM; the TGI was 2.07 µM and 2.35 µM.

Regarding `CC(=O)[O-].CC(=O)[O-].CC(=O)[O-].CC(=O)[O-].[Mo+2].[Mo+2]`, the GI50 is more than 100 µM and the TGI was more than 100 µM.

`C=CCC1[C@@H](C(C)(C)C(C(C)=O)C(=O)C(=O)OC)OC(C(C)(C)C)N1C(=O)OC` (stereo not given in full) showed a TGI of more than 100 µM.

As to `CC1(C)OC2COC3(CNO)OC(C)(C)OC3C2O1` (stereo not given), the TGI was more than 100 µM.

As for `CCOC(=O)C(=O)Nc1ccccc1C(F)(F)F`, the TGI was more than 100 µM.

Compound `COc1ccc(Nc2nc3ccccc3nc2-c2cccs2)cc1` returned a TGI of more than 100 µM.

As to `CCOC(=O)/C(=C/c1cccc(OC)c1)N(CC)CC`, the TGI is more than 100 µM.

Consider `Cc1nnc(N/N=C(/C(=O)C(C#N)c2ccccc2)C(C#N)c2ccccc2)n1N` (stereo not given), for which the TGI was more than 100 µM.

The compound `COc1c(Br)cc(Br)c(OC)c1-c1[nH]c(Br)c(Br)c1Br` yielded a TGI of 24.7 µM.

`CCOC(=O)c1ccc(N[C@@H]2c3cc4c(cc3C(C3=CC(=O)C(=O)C(OC)=C3)[C@H]3C(=O)OCC32)OCO4)cc1` (stereo not given in full) had a TGI of 38.9 µM.

`NC(=O)/C=C/C(=O)O` gave a TGI of more than 5000 µM.

Compound `CC(CC(=O)Nc1ccc(NC(=O)CC(C)N=NC(N)=S)cc1)N=NC(N)=S` (stereo not given) came in with a TGI of more than 100 µM.

As to `Cc1c(C(=O)CSc2nc3ccccc3c(=O)n2-c2ccccc2)c(=O)n(-c2ccccc2)n1C`, the TGI was more than 100 µM.

Compound `COC(=O)/C(C#N)=C1\CCC(C(=O)OC)N1C` (stereo not given) gave a TGI of more than 100 µM.

Consider `c1ccc(Cn2cnc3ccc(-c4nc(-c5ccc6c(c5)ncn6C5CCCCC5)cn5ccnc45)cc32)cc1`, for which the GI50 was 3.52 µM and the TGI is more than 100 µM.

The compound `CSc1c(C)c(C)nn1-c1ccccc1` had a TGI of more than 100 µM.

In the case of `CC1=C(C(=O)Nc2ccccc2C)C(/C=C/c2ccccc2)C(C(=O)Nc2ccccc2C)=C(C)N1`, the TGI was more than 100 µM.

`COc1cc2cnc3c4ccccc4ccc3c2cc1OC` showed a TGI of more than 100 µM.

Compound `Cc1cn(C2OC(C)(CO)C(O)C2O)c(=O)[nH]c1=O` (stereo not given) registered a TGI of more than 100 µM.

`O=C1C=C(O)c2[nH]c(=O)ccc2C1=O` yielded a TGI of more than 100 µM.

Compound `O=c1ncccn1C1C=C(CO)C(O)C1O` (stereo not given) displayed a TGI of more than 50 µM.

As for `CCN(CC)CC(=O)N1CCc2c([nH]c3ccccc23)C1c1cccnc1` (stereo not given), the TGI is more than 100 µM.

With `O=c1c(Cl)c(Cl)cnn1CCc1ccncc1`, the TGI was more than 100 µM.

In turn, `CCCCCCCCCCCCCC(=O)OCC1OC(=O)CC1O` (stereo not given) came in with a TGI of more than 100 µM.

The compound `CC1(Cc2ccccc2)NC(=S)NC1=O` (stereo not given) showed a TGI of more than 100 µM.

Compound `O=C1C2=C(c3ccccc31)C(c1ccccc1Cl)N1C(=O)CCSC1=N2` (stereo not given) gave a TGI of more than 100 µM.

Another assay relates to MOLT-4 leukemia. The assay can be described thus: NCI-60 cell line screen, 48 h.
With `CC1(c2ccccc2)CC(c2ccccc2)=NO1` (stereo not given), the TGI was more than 100 µM.

`COc1cccc(/C=C2\CCC(C)(CN(C)C)C2=O)c1` (stereo not given) showed a TGI of more than 100 µM.

In turn, `Cl[Si]1(Cl)Oc2ccccc2O[Si](Cl)(Cl)Oc2ccccc2O1` registered a TGI of 42.8 µM.

For `C[n+]1c2ccccc2cc2c(CNC(CCCN=C(N)N)C(=O)O)cccc21` (stereo not given), the TGI came out at 0.852 µM.

Consider `CC(=O)[O-].CC(=O)[O-].CC(=O)[O-].CC(=O)[O-].[Mo+2].[Mo+2]`, for which the GI50 was more than 100000 nM and the TGI was more than 100 µM.

In the case of `C=CCC1[C@@H](C(C)(C)C(C(C)=O)C(=O)C(=O)OC)OC(C(C)(C)C)N1C(=O)OC` (stereo not given in full), the TGI amounted to 70.9 µM.

On to `CC1(C)OC2COC3(CNO)OC(C)(C)OC3C2O1` (stereo not given), for which the TGI is more than 100 µM.

`COc1ccc(Nc2nc3ccccc3nc2-c2cccs2)cc1` returned a TGI of more than 100 µM.

`CCOC(=O)/C(=C/c1cccc(OC)c1)N(CC)CC` registered a TGI of more than 100 µM.

The compound `Cc1nnc(N/N=C(/C(=O)C(C#N)c2ccccc2)C(C#N)c2ccccc2)n1N` (stereo not given) displayed a TGI of 9.28 µM.

Compound `COc1c(Br)cc(Br)c(OC)c1-c1[nH]c(Br)c(Br)c1Br` yielded a TGI of 21.8 µM.

In turn, `CCOC(=O)c1ccc(N[C@@H]2c3cc4c(cc3C(C3=CC(=O)C(=O)C(OC)=C3)[C@H]3C(=O)OCC32)OCO4)cc1` (stereo not given in full) displayed a TGI of more than 37.7 µM.

In turn, `NC(=O)/C=C/C(=O)O` displayed a TGI of more than 5000 µM.

On to `CC(CC(=O)Nc1ccc(NC(=O)CC(C)N=NC(N)=S)cc1)N=NC(N)=S` (stereo not given), for which the TGI was more than 100 µM.

For the compound `Cc1c(C(=O)CSc2nc3ccccc3c(=O)n2-c2ccccc2)c(=O)n(-c2ccccc2)n1C`, the TGI was more than 100 µM.

In the case of `COC(=O)/C(C#N)=C1\CCC(C(=O)OC)N1C` (stereo not given), the TGI is more than 100 µM.

Consider `c1ccc(Cn2cnc3ccc(-c4nc(-c5ccc6c(c5)ncn6C5CCCCC5)cn5ccnc45)cc32)cc1`, for which the GI50 is 1670 nM and the TGI is more than 100 µM.

`CSc1c(C)c(C)nn1-c1ccccc1` yielded a TGI of more than 100 µM.

In the case of `CC(=O)OC1COC(n2c(=S)n(-c3ccccc3)c(=O)c3cc(Br)ccc32)C(OC(C)=O)C1OC(C)=O` (stereo not given), the TGI was more than 100 µM.

The compound `COc1cc2cnc3c4ccccc4ccc3c2cc1OC` yielded a TGI of more than 100 µM.

In the case of `Cc1cn(C2OC(C)(CO)C(O)C2O)c(=O)[nH]c1=O` (stereo not given), the TGI is more than 100 µM.
